Patent US6229016A, “Method for treating tumors using 2-aryl-naphthyridin-4-ones” (priority 2000, dated 2001)

Legend:
[1] = test system: tubulin; assay: Colchicine binding assay; set-up: species or system bovine; settings: for ICB (% Inhibition) (inhibition of colchicine binding): evaluated only when polymerization IC50 ≤ 1 μM, 5.0 μM inhibitor, 5.0 μM [3H]colchicine, 1.0 μM tubulin
Procedure: Electrophoretically homogeneous bovine brain tubulin was purified as described in E. Hamel, et al. Biochemistry 23:4173 (1984). Combretastatin A-4 was a generous gift of Dr. G. R Pettit, Arizona State University.
Incubation was for 20 min at 37° C. Each reaction mixture was filtered under reduced vacuum through a stack of two DEAE-cellulose paper filters, washed with water, and radioactivity quantitated in a liquid scintillation counter.
[…]. with 36' vs. 33'-35', and with 46' vs. 43'-45').

[2] = test system: central nervous system, lung, ovarian, colon, and renal cancers and melanoma and leukemia cell lines; assay: Cytotoxicity of isolated flavonol in panels of tumor cell lines; format: cell-based; settings: in vitro
Description: In the course of this groups search for novel plant-derived potent cytotoxic agents that are active against slow-growing solid tumors, we have isolated several flavonols as antitumor principles from a phytochemically and biologically heretofore uninvestigated plant, Polanisia dodecandra. […]

[3] = test system: tubulin; assay: Tubulin polymerization assay; format: biochemical, bovine; settings: earlier finding, background section; read-out: IC50, inhibitor of tubulin polymerization
Procedure: Electrophoretically homogeneous bovine brain tubulin was purified as described in E. Hamel, et al. Biochemistry 23:4173 (1984).
The tubulin polymerization assay was performed as described in S. Kuo, et al. J. Med. Chem. 36:1146 (1993); L. Li, et al. J. Med. Chem. 37:1126 (1994); and L. Li J. Med. Chem. 37:3400 (1994). In brief, tubulin at 1.2 mg/ml (12 μM) was preincubated for 15 min at 26° C. in a 0.24-ml volume of 0.8 M monosodium glutamate (pH 6.6 with NaOH in a 2 M stock solution) with varying drug concentrations. The drug stock solutions were in DMSO, and the final solvent concentration was 4 % (v/v). All concentrations are in terms of the final reaction volume (0.25 ml). The reaction mixtures were chilled on ice, and 10 μl of 10 mM GTP was added to each reaction mixture. Samples were transferred to cuvettes held at 0° C. by an electronic temperature controller in Gilford spectrophotometers. Baselines were established at 350 nm, and polymerization initiated by a temperature jump to 26° C. The jump took about 50 sec to complete. After 20 min, turbidity readings were recorded, and the temperature controller was set to 0C. When depolymerization was complete, turbidity readings were again recorded. […] IC50 values were obtained graphically from inhibition of polymerization by different drug concentrations.
Electrophoretically, homogeneous bovine brain tubulin was purified as described in Example 6.
The tubulin polymerization assay was performed as described in Example 6.

[4] = test system: 786-0 renal cancer cell line; assay: NCI in vitro screen, renal cancer 786-0; format: cell-based; settings: Homo sapiens, read-out: Cytotoxicity log GI50 (converted)
[5] = test system: OVCAR-3 ovarian cancer cell line; assay: NCI in vitro screen, ovarian cancer OVCAR-3; format: cell-based; settings: Homo sapiens, read-out: Cytotoxicity log GI50 (converted)
[6] = test system: MDA-N breast cancer cell line; assay: NCI in vitro screen, breast cancer MDA-N; format: cell-based; settings: Homo sapiens; for IC (TGI): range over four compounds and two cell lines, read-out: log TGI; for GI50: read-out: Cytotoxicity log GI50 (converted)
[7] = test system: NCI's 60 human tumor cell line; assay: NCI 60 human tumor cell line in vitro screen (average / whole panel); format: cell-based; settings: calculated from all cell lines tested, molar concentrations, read-out: average log GI50 (converted)
[8] = test system: SF-295 CNS cancer cell line; assay: NCI in vitro screen, CNS cancer SF-295; format: cell-based; settings: Homo sapiens, read-out: Cytotoxicity log GI50 (converted)
[9] = test system: MDA-MB-435 breast cancer cell line; assay: NCI in vitro screen, breast cancer MDA-MB-435; format: cell-based; settings: Homo sapiens; for IC (TGI): range over four compounds and two cell lines, read-out: log TGI; for GI50: read-out: Cytotoxicity log GI50 (converted)
[10] = test system: HCT-116 colon cancer cell line; assay: NCI in vitro screen, colon cancer HCT-116; format: cell-based; settings: Homo sapiens; HCT-1.16 (head); HCT-116 (footnote); read-out: Cytotoxicity log GI50 (converted)
[11] = test system: SK-MEL-5 melanoma cell line; assay: NCI in vitro screen, melanoma SK-MEL-5; format: cell-based; settings: Homo sapiens, read-out: Cytotoxicity log GI50 (converted)
[12] = test system: NCI-H226 cell line; assay: NCI in vitro screen, NCI-H226; format: cell-based; settings: Homo sapiens, range over four compounds, read-out: log TGI
Description: Compounds 41-51 and 53-68 were submitted to NCI and assayed in the NCI's in vitro disease-oriented antitumor screen, which involves determination of a test compound's effects on the growth of approximately 60 human tumor cell lines. See, M. R. Boyd, et al. In Cancer: Principles and Practice of Oncology Updates; De Vita, V. T., Hellman, S., Rosenberg, S. A., Eds; J. B. Lippincoft: Philadelphia, pp 1-12 (1989); and A. Monks, et al. J. Natl. Cancer Inst. 83:757 (1991). These lines include leukemia, non-small cell lung, colon, central nervous system (CNS), melanoma, ovarian, renal, prostate, and breast cancers.

[13] = test system: NCI-H460 non-small cell lung cancer cell line; assay: NCI in vitro screen, non-small cell lung cancer NCI-H460; format: cell-based; settings: Homo sapiens, read-out: Cytotoxicity log GI50 (converted)
[14] = test system: PC-3 prostate cancer cell line; assay: NCI in vitro screen, prostate cancer PC-3; format: cell-based; settings: Homo sapiens, read-out: Cytotoxicity log GI50 (converted)
[15] = test system: HL-60(TB) leukemia cell line; assay: cells; format: cell-based; settings: Homo sapiens; for IC (TGI): HL-60, H-60 cell line, range over four compounds, read-out: log TGI; for GI50: HL-60(TB), read-out: Cytotoxicity log GI50 (converted)
[16] = test system: U-251 CNS cancer cell line; assay: NCI in vitro screen, CNS cancer U-251; format: cell-based; settings: Homo sapiens, read-out: Cytotoxicity log GI50 (converted)

Structure (SMILES) | ICB (% Inhibition) (inhibition of colchicine binding) [1] | GI50 values [2] | IC50 [3] | inhibition of radiolabeled colchicine binding to tubulin ([1]; equimolar concentration with colchicine, background section) | GI50 [4] | GI50 [5] | IC (TGI) [6] | GI50 [6] | GI50 [7] | GI50 [8] | IC (TGI) [9] | GI50 [9] | GI50 [10] | GI50 [11] | IC (TGI) [12] | GI50 [13] | GI50 [14] | IC (TGI) [15] | GI50 [15] | GI50 [16]
COc1ccc(/C=C\c2cc(OC)c(OC)c(OC)c2)cc1O [combretastatin A-4, Combretastatin A-4] | 91 ± 2% | – | – | – | – | – | – | – | – | – | – | – | – | – | – | – | – | – | – | –
COc1cc([C@@H]2c3cc4c(cc3[C@H](O)[C@H]3COC(=O)[C@H]23)OCO4)cc(OC)c1OC [podophyllotoxin, reference compound] | 76 ± 5% | – | – | – | – | – | – | – | – | – | – | – | – | – | – | – | – | – | – | –
COc1ccc(-c2oc3c(OC)c(OC)c(OC)c(O)c3c(=O)c2OC)cc1O [5,3'-dihydroxy-3,6,7,8,4'-pentamethoxyflavone] | – | low micromolar to nanomolar concentration range | 830 ± 200 nM | 59% | – | – | – | – | – | – | – | – | – | – | – | – | – | – | – | –
COc1cccc(-c2cc(=O)c3cccnc3[nH]2)c1 [Compound 44] | – | – | – | – | 61.7 nM | 55 nM | 21.4 to 39.8 nM | < 10 nM | 135 nM | 52.5 nM | 21.4 to 39.8 nM | < 10 nM | 36.3 nM | 53.7 nM | 75.9 to 692 nM | 91.2 nM | 93.3 nM | 39.8 to 64.6 nM | 16.2 nM | 55 nM
COc1cccc(-c2cc(=O)c3cc(C)cnc3[nH]2)c1 [Compound 46] | – | – | – | – | 37.2 nM | 41.7 nM | 21.4 to 39.8 nM | < 10 nM | 95.5 nM | 37.2 nM | 21.4 to 39.8 nM | < 10 nM | 22.4 nM | 25.7 nM | 75.9 to 692 nM | 43.7 nM | 42.7 nM | 39.8 to 64.6 nM | 19.1 nM | 44.7 nM
